# Measured values from PMC4671956, “Exploiting Transient Protein States for the Design of Small-Molecule Stabilizers of Mutant p53” (Structure(London, England:1993), 2015).
# Key:
# [1] = biological target: T1, p53 Y220C mutant (Homo sapiens, UniProt P04637, M133L/N239Y/N268D/V203A/Y220C); set-up: method as in Boeckler et al., 2008; settings: ref Boeckler et al., 2008; cited from earlier work
# [2] = biological target: T1, p53 Y220C mutant; set-up: method as in Boeckler et al., 2008; settings: ref Boeckler et al., 2008; cited from earlier work; remark: listed apart in the source
# [3] = biological target: T1, p53 Y220C mutant; test: Dissociation constant by nuclear magnetic resonance spectroscopy (NMR); type: binding
# Protocol: (§1) Dissociation constants for the binding of ligands to the p53 Y220C mutant were determined by either nuclear magnetic resonance spectroscopy or isothermal calorimetry as described by [Wilcken et al. (2012a)].
# [4] = biological target: T1, p53 Y220C mutant; test: Dissociation constant by isothermal calorimetry (ITC); type: binding
# Protocol: as §1
# [5] = tested on: cancer cell lines expressing the Y220C mutant; set-up: method as in Liu et al., 2013; settings: ref Liu et al., 2013; cited from earlier work
# [6] = NMR, p53-Y220C ligand complex, read-out: KD
smiles,measurement,setting,value
"CCn1c2ccccc2c2cc(CNC)ccc21 [Compound 1, PhiKan083]",effect on melting temperature of the protein,[1],raises the melting temperature of the protein
same,effect on rate of aggregation,[2],slows down its rate of aggregation
CCc1cccc2c(C3CCNCC3)c[nH]c12 [Compound 2],Kd,[3]; [6],470 ± 90 µM
O=C(O)c1cc(I)cc(I)c1O [Compound 4],ligand efficiency [LE],[3]; from KD = 820 μM (NMR),0.35 kcal/mol per non-hydrogen atom
CCc1cc(Br)cc2c(CCN)c(C)[nH]c12 [Compound 6],Kd,[3],940 ± 110 µM
"CN(C)CCn1cc(-c2ccc(F)cc2)c(-n2cccc2)n1 [Compound 7, PhiKan7242]",Kd,[3]; [6],2400 µM
Nc1ccc(C(F)(F)F)cc1N [Compound 8],Kd,[3]; [6],> 10000 µM
O=C(O)c1cc(I)c(-n2cccc2)c(I)c1O [Compound 9],Kd,"[4]; ITC, p53-Y220C ligand complex",21 µM
same,increase in affinity,[4]; compound 9 relative to scaffold 4 without pyrrole,40 fold
same,ligand efficiency [LE],[4]; from KD = 21 μM (ITC),0.38 kcal/mol per non-hydrogen atom
c1ccn(-c2oc(C3CC3)nc2-c2nnn[nH]2)c1 [Compound 10],Kd,[3]; [6],> 2000 µM
Nc1cc(C(F)(F)F)cc(Br)c1N [Compound 11],Kd,[3]; [6],4800 µM
O=C(Nc1ccc(Cl)cc1O)C1CCNCC1 [Compound 12],Kd,[3]; [6],1270 µM
Cn1cc(-c2ccccc2)c(-n2cccc2)n1 [PhiKan7088],biological activity in cancer cell lines,[5],biologically active
